In patent US20050220907A1, “Implanted medical devices with anti-inflammatory coatings” (priority 2004, published 2005):

Experiments:
[1] = Effect of olive kernel extract on absorption of tritiated chondroitin sulfate in vivo (serum radioactivity after oral capsule); set-up: species or system male Sprague-Dawley rats; conditions: serum radioactivity at 8 hours
Experimental: Chondroitin sulfate was tritiated by New England Nuclear Corp. to a specific activity of 4.3 mCi/ml.
Unlabeled chondroitin sulfate was dissolved in olive kernel extract at a ratio of about 55 w/v chondroitin sulfate powder to about 450 w/v of olive kernel extract (2.9% acidity as oleic acid, 1.03% water, 0.08% hexane). To this solution was added 20.2 microcuries of the labeled chondroitin sulfate. AAA gelatin capsules were filled with the resulting solution using an aluminum template molding device.
The laboratory animals (250 g male Sprague-Dawley rats) were kept overnight without food but with free access to water. One capsule containg the above-described chondroitin sulfate-olive kernel extract solution was given to each rat per os. Control animals were given the equivalent amount of chondroitin, but without olive kernel extract. The animals were then given free access to food. Serum radioactivity was measured 8 hours thereafter in a beta scintillation counter.

[2] = Chondroitin sulfate solubility in oils; format: physicochemical; conditions: in codfish oil, corn oil and olive oil (from the flesh of the olive)
Description: Parallel experiments with codfish oil, corn oil and olive oil (from the flesh of the olive) were comtemplated, but chondroitin sulfate solubility in these oils was insufficient to meet the requirements of the experiment.

[3] = commercially available preparations, oral; cited from earlier work

- dose of labeled chondroitin sulfate that reached the circulation ([1]; control rats, one capsule per os without olive kernel extract, n=3): about 3.9%+/−0.4%
- dose of labeled chondroitin sulfate absorbed into the general circulation ([1]; rats, one capsule per os of chondroitin sulfate dissolved in olive kernel extract, n=4): about 14.3%+/−0.7%
- chondroitin sulfate solubility in oils [2]: insufficient
Substance: chondroitin sulfate
- chondroitin sulfate absorbed orally [3]: less than 5%
